Experimental data published in US7265152B2 (ViroPharma Incorporated, priority 2002, dated 2007).
Where two headings read alike, the source gives them in different places.

What was measured:
[1] = test system: HCV replicon (BB7 sequence) in Huh-7-Clone A cells; assay: HCV replicon assay: ELISA of NS5A protein in replicon-containing cells (Inhibition of Viral RNA Replication); type: cell-based; settings: Hepatitis C virus; HCV replicon assay; ranges of EC50; read-out: Replicon
In short: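 Huh-7-Clone A cells carrying subgenomic BB7 HCV replicon (G418-selectable) incubated 72 h with compound. NS5A protein quantified by cell ELISA: glutaraldehyde fixation, anti-NS5A monoclonal plus HRP secondary, TMB read at OD 650 nm. EC50 derived from 8-point serial dilution dose curve.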

[2] = biological target: T1, HCV NS5B (Hepatitis C virus genotype 1b, UniProt Q9WMX2); assay: Inhibition of viral RNA-dependent RNA polymerase (RdRp), in vitro biochemical assay; parameters: species or system HCV genotype 1b virus (BB7); settings: HCV NS5B RdRp, BB7, read-out: HCV pol-BB7 IC50
T1 construct: fusion protein, of which the carboxyl terminal 21 amino acids were removed to enhance its solubility; His tag (GSHHHHHH); made in house; host or cells: E. coli
In short: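 Purified recombinant NS5B from a genotype 1b consensus (BB7), His-tagged, E. coli-expressed, with the C-terminal 21 residues deleted. Inhibition of RdRp activity in vitro was measured, and IC50 is the concentration giving 50% inhibition.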

Row | SMILES | EC50 [1] [nM] | IC50 ([2]; class symbols A-D) [nM] | IC50 ([2]; activity class) [nM]
1 | CNC(=O)c1c(-c2ccc(F)cc2)oc2cc(N(CCOC(F)(F)F)S(C)(=O)=O)c(OC)cc12 [Example 316, 2-(4-Fluoro-phenyl)-6-[methanesulfonyl-(2-trifluoromethoxy-ethyl)-amino]-5-methoxy-benzofuran-3-carboxylic acid methylamide] | < 1000 | 500 to 5000 | 
2 | CNC(=O)c1c(-c2ccc(F)cc2)oc2cc(-c3cc[nH]c3)c(OC)cc12 [Example 317, 2-(4-Fluoro-phenyl)-5-methoxy-6-(1H-pyrrol-3-yl)-benzofuran-3-carboxylic acid methylamide] | < 1000 | 5000 to 30000 | 
3 | CCOc1cc(F)ccc1-c1oc2cc(-c3c(C)noc3C)c(OC)cc2c1C(=O)NC [Example 318, 6-(3,5-Dimethyl-isoxazol-4-yl)-2-(2-ethoxy-4-fluoro-phenyl)-5-methoxy-benzofuran-3-carboxylic acid methylamide] | > 30000 | ≤ 500 | 
4 | CNC(=O)c1c(-c2ccc(F)cc2)oc2cc(N(C)S(C)(=O)=O)c(OCc3cscn3)cc12 [Example 319, 2-(4-Fluoro-phenyl)-6-(methanesulfonyl-methyl-amino)-5-(thiazol-4-ylmethoxy)-benzofuran-3-carboxylic acid methylamide] | < 1000 | 500 to 5000 | 
5 | CNC(=O)c1c(-c2ccc(F)cc2)oc2cc(N(C)S(C)(=O)=O)c(OCc3csc(C)n3)cc12 [Example 320, 2-(4-Fluoro-phenyl)-6-(methanesulfonyl-methyl-amino)-5-(2-methyl-thiazol-4-ylmethoxy)-benzofuran-3-carboxylic acid methylamide] | < 1000 | ≤ 500 | 
6 | CNC(=O)c1c(-c2ccc(F)cc2)oc2cc(N(C)S(C)(=O)=O)c(Oc3nc(CCl)ns3)cc12 [Example 321, 5-(3-Chloromethyl-[1,2,4]thiadiazol-5-yloxy)-2-(4-fluoro-phenyl)-6-(methanesulfonyl-methyl-amino)-benzofuran-3-carboxylic acid methylamide] | < 1000 | ≤ 500 | 
7 | CNC(=O)c1c(-c2ccc(F)cc2)oc2cc(N(CC(O)c3ccc(F)cc3)S(C)(=O)=O)c(OC(C)C)cc12 (centres unmarked) [Example 322, 2-(4-Fluoro-phenyl)-6-{[2-(4-fluoro-phenyl)-2-hydroxy-ethyl]-methanesulfonyl-amino}-5-isopropoxy-benzofuran-3-carboxylic acid methylamide] | < 1000 | ≤ 500 | 
8 | CNC(=O)c1c(-c2ccc(F)cc2)oc2cc(-c3ncnn3C)c(OC)cc12 [Example 323, 2-(4-Fluoro-phenyl)-5-methoxy-6-(2-methyl-2H-[1,2,4]triazol-3-yl)-benzofuran-3-carboxylic acid methylamide] | < 1000 | ≤ 500 | 
9 | CNC(=O)c1c(-c2ccc(F)cc2)oc2cc(N(C)S(C)(=O)=O)c(OCc3c(C)noc3C)cc12 [Example 324, 5-(3,5-Dimethyl-isoxazol-4-ylmethoxy)-2-(4-fluoro-phenyl)-6-(methanesulfonyl-methyl-amino)-benzofuran-3-carboxylic acid methylamide] | < 1000 | ≤ 500 | 
10 | CNC(=O)c1c(-c2ccc(F)cc2)oc2cc(N(C)S(C)(=O)=O)c(OCc3cccc(OC)c3)cc12 [Example 325, 2-(4-Fluoro-phenyl)-6-(methanesulfonyl-methyl-amino)-5-(3-methoxy-benzyloxy)-benzofuran-3-carboxylic acid methylamide] | < 1000 | ≤ 500 | 
11 | CNC(=O)c1c(-c2ccc(F)cc2)oc2cc(N(CC(C)C)S(C)(=O)=O)c(O)cc12 [Example 326, 2-(4-Fluoro-phenyl)-5-hydroxy-6-(isobutyl-methanesulfonyl-amino)-benzofuran-3-carboxylic acid methylamide] | < 30000 | 500 to 5000 | 
12 | CNC(=O)c1c(-c2ccc(F)cc2)oc2cc(N(C)S(C)(=O)=O)c(OCc3ccc(OC)cc3)cc12 [Example 327, 2-(4-Fluoro-phenyl)-6-(methanesulfonyl-methyl-amino)-5-(4-methoxy-benzyloxy)-benzofuran-3-carboxylic acid methylamide] | < 1000 | ≤ 500 | 
13 | CNC(=O)c1c(-c2ccc(F)cc2)oc2cc(N(C)S(C)(=O)=O)c(OCc3ccncc3)cc12 [Example 328, 2-(4-Fluoro-phenyl)-6-(methanesulfonyl-methyl-amino)-5-(pyridin-4-ylmethoxy)-benzofuran-3-carboxylic acid methylamide] | < 1000 | ≤ 500 | 
14 | CNC(=O)c1c(-c2ccc(F)cc2)oc2cc(N(C)S(C)(=O)=O)c(OCc3ccc4c(c3)C(=O)OC(C)(C)O4)cc12 [Example 329, 5-(2,2-Dimethyl-4-oxo-4H-benzo[1,3]dioxin-6-ylmethoxy)-2-(4-fluoro-phenyl)-6-(methanesulfonyl-methyl-amino)-benzofuran-3-carboxylic acid methylamide] | < 1000 | ≤ 500 | 
15 | CNC(=O)c1c(-c2ccc(F)cc2)oc2cc(N(CC3CC3)S(C)(=O)=O)c(OC)cc12 [Example 330, 6-(Cyclopropylmethyl-methanesulfonyl-amino)-2-(4-fluoro-phenyl)-5-methoxy-benzofuran-3-carboxylic acid methylamide] | < 1000 | ≤ 500 | 
16 | CNC(=O)CN(c1cc2oc(-c3ccc(F)cc3)c(C(=O)NC)c2cc1OC)S(C)(=O)=O [Example 331, 2-(4-Fluoro-phenyl)-6-(methanesulfonyl-methylcarbamoylmethyl-amino)-5-methoxy-benzofuran-3-carboxylic acid methylamide] | < 1000 |  | ≤ 500
17 | CNC(=O)c1c(-c2ccc(F)cc2)oc2cc(NS(C)(=O)=O)c(F)cc12 [Example 332, 5-Fluoro-2-(4-fluoro-phenyl)-6-methanesulfonylamino-benzofuran-3-carboxylic acid methylamide] | < 10000 |  | 500 to 5000
18 | CCN(c1cc2oc(-c3ccc(F)cc3)c(C(=O)NC)c2cc1F)S(C)(=O)=O [Example 333, 6-(Ethyl-methanesulfonyl-amino)-5-fluoro-2-(4-fluoro-phenyl)-benzofuran-3-carboxylic acid methylamide] | < 10000 |  | ≤ 500
19 | CNC(=O)c1c(-c2ccc(F)cc2)oc2cc(C3CCN(S(C)(=O)=O)C3)c(OC)cc12 (centres unmarked) [Example 334, 2-(4-Fluoro-phenyl)-6-(1-methanesulfonyl-pyrrolidin-3-yl)-5-methoxy-benzofuran-3-carboxylic acid methylamide] | < 1000 |  | ≤ 500
20 | CCc1cc2c(C(=O)NC)c(-c3ccc(F)cc3)oc2cc1N(CCOC)S(C)(=O)=O [Example 335, 5-Ethyl-2-(4-fluoro-phenyl)-6-[methanesulfonyl-(2-methoxy-ethyl)-amino]-benzofuran-3-carboxylic acid methylamide] | < 1000 |  | ≤ 500
21 | CNC(=O)c1c(-c2ccc(F)cc2)oc2cc(-c3c(COC)noc3C)c(OC)cc12 [Example 336, 2-(4-Fluoro-phenyl)-5-methoxy-6-(3-methoxymethyl-5-methyl-isoxazol-4-yl)-benzofuran-3-carboxylic acid methylamide] | < 1000 |  | ≤ 500
22 | CCc1cc2c(C(=O)NC)c(-c3ccc(F)cc3)oc2cc1N(CCF)S(C)(=O)=O [Example 337, 5-Ethyl-6-[(2-fluoro-ethyl)-methanesulfonyl-amino]-2-(4-fluoro-phenyl)-benzofuran-3-carboxylic acid methylamide] | < 1000 |  | ≤ 500
23 | CCCOc1cc2c(C(=O)NC)c(-c3ccc(F)cc3)oc2cc1N(CCC)S(C)(=O)=O [Example 338, 2-(4-Fluoro-phenyl)-6-(methanesulfonyl-propyl-amino)-5-propoxy-benzofuran-3-carboxylic acid methylamide] | < 1000 |  | ≤ 500
24 | CCc1cc2c(C(=O)NC)c(-c3ccc(F)cc3)oc2cc1C(C)(C)O [Example 339, 5-Ethyl-2-(4-fluoro-phenyl)-6-(1-hydroxy-1-methyl-ethyl)-benzofuran-3-carboxylic acid methylamide] | < 1000 |  | ≤ 500
25 | CCc1cc2c(C(=O)NC)c(-c3ccc(F)cc3)oc2cc1C(C)=O [Example 340, 6-Acetyl-5-ethyl-2-(4-fluoro-phenyl)-benzofuran-3-carboxylic acid methylamide] | < 1000 |  | ≤ 500
26 | CCNc1cc2oc(-c3ccc(F)cc3)c(C(=O)NC)c2c(Cl)c1O [Example 341, 4-Chloro-6-ethylamino-2-(4-fluoro-phenyl)-5-hydroxy-benzofuran-3-carboxylic acid methylamide] | > 100000 |  | 500 to 5000
27 | CCNc1cc2oc(-c3ccc(F)cc3)c(C(=O)NC)c2c(Cl)c1OS(C)(=O)=O [Example 342, Methanesulfonic acid 4-chloro-6-ethylamino-2-(4-fluoro-phenyl)-3-methylcarbamoyl-benzofuran-5-yl ester] | < 10000 |  | ≤ 500
28 | CCc1cc2c(C(=O)NC)c(-c3ccc(F)cc3)oc2cc1N(Cc1cscn1)S(C)(=O)=O [Example 343, 5-Ethyl-2-(4-fluoro-phenyl)-6-(methanesulfonyl-thiazol-4-ylmethyl-amino)-benzofuran-3-carboxylic acid methylamide] | < 1000 |  | ≤ 500
